Results taken from PubChem BioAssay (NCI).
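Cells were grown in 96-well plates and exposed to each compound for 48 hours at five concentrations; endpoints were interpolated linearly between bracketing concentrations, or set to the highest concentration if not reached. TGI marks complete inhibition of growth.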

How the values were obtained:
Experiment in all cases: NCI anticancer screen, dose series, 48 h
HT29 colon = tested on: HT29 colon
MDA-MB-435 = tested on: MDA-MB-435
SR leukemia = tested on: SR leukemia
HCT-116 colon = tested on: HCT-116 colon
A549 NSCLC = tested on: A549 NSCLC
CAKI-1 renal = tested on: CAKI-1 renal
OVCAR-5 ovarian = tested on: OVCAR-5 ovarian
U251 CNS = tested on: U251 CNS
T-47D breast = tested on: T-47D breast
SK-MEL-2 melanoma = tested on: SK-MEL-2 melanoma
NCI-H23 lung = tested on: NCI-H23 lung
UACC-62 melanoma = tested on: UACC-62 melanoma
SF-539 CNS = tested on: SF-539 CNS
RPMI-8226 leukemia = tested on: RPMI-8226 leukemia
MCF7 breast = tested on: MCF7 breast
LOX IMVI melanoma = tested on: LOX IMVI melanoma
IGROV1 ovarian = tested on: IGROV1 ovarian
786-0 renal = tested on: 786-0 renal
OVCAR-8 ovarian = tested on: OVCAR-8 ovarian
HCT-15 colon = tested on: HCT-15 colon
OVCAR-4 ovarian = tested on: OVCAR-4 ovarian
MOLT-4 leukemia = tested on: MOLT-4 leukemia
HOP-62 NSCLC = tested on: HOP-62 NSCLC
A498 renal = tested on: A498 renal
ACHN renal = tested on: ACHN renal
RXF 393 renal = tested on: RXF 393 renal
SK-MEL-28 melanoma = tested on: SK-MEL-28 melanoma
SK-MEL-5 melanoma = tested on: SK-MEL-5 melanoma
UO-31 renal = tested on: UO-31 renal
PC-3 prostate = tested on: PC-3 prostate
MALME-3M melanoma = tested on: MALME-3M melanoma
NCI-H226 lung = tested on: NCI-H226 lung
SK-OV-3 ovarian = tested on: SK-OV-3 ovarian
SF-295 CNS = tested on: SF-295 CNS
DU-145 prostate = tested on: DU-145 prostate
HOP-92 NSCLC = tested on: HOP-92 NSCLC
SW-620 colon = tested on: SW-620 colon
UACC-257 melanoma = tested on: UACC-257 melanoma
COLO 205 colon = tested on: COLO 205 colon
NCI-H460 lung = tested on: NCI-H460 lung
HS 578T breast = tested on: HS 578T breast
TK-10 renal = tested on: TK-10 renal
K-562 leukemia = tested on: K-562 leukemia
MDA-MB-231 breast = tested on: MDA-MB-231 breast
SN12C renal = tested on: SN12C renal
HL-60(TB) leukemia = tested on: HL-60(TB) leukemia
BT-549 breast = tested on: BT-549 breast
M14 melanoma = tested on: M14 melanoma
SNB-75 CNS = tested on: SNB-75 CNS
NCI/ADR-RES ovarian = tested on: NCI/ADR-RES ovarian
SF-268 CNS = tested on: SF-268 CNS
SNB-19 CNS = tested on: SNB-19 CNS
OVCAR-3 ovarian = tested on: OVCAR-3 ovarian
KM12 colon = tested on: KM12 colon
NCI-H522 lung = tested on: NCI-H522 lung
HCC-2998 colon = tested on: HCC-2998 colon
CCRF-CEM leukemia = tested on: CCRF-CEM leukemia
EKVX NSCLC = tested on: EKVX NSCLC

O=C(CC(Cl)(Cl)C(Cl)(Cl)Cl)c1ccccc1
TGI (HT29 colon): 4.72 µM | TGI (MDA-MB-435): 5.34 µM | TGI (SR leukemia): 4.37 µM | TGI (HCT-116 colon): 4.91 µM | TGI (A549 NSCLC): 39.1 µM | TGI (CAKI-1 renal): 4.39 µM | TGI (OVCAR-5 ovarian): 25.8 µM | TGI (U251 CNS): 18.3 µM | TGI (T-47D breast): 7.08 µM | TGI (SK-MEL-2 melanoma): 32.3 µM | TGI (NCI-H23 lung): 20.5 µM | TGI (UACC-62 melanoma): 6.56 µM | TGI (SF-539 CNS): 31.3 µM | TGI (RPMI-8226 leukemia): 6.09 µM | TGI (MCF7 breast): 23.6 µM | TGI (LOX IMVI melanoma): 3.74 µM | TGI (IGROV1 ovarian): 18.3 µM | TGI (786-0 renal): 11.4 µM | TGI (OVCAR-8 ovarian): 8.53 µM | TGI (HCT-15 colon): 4.56 µM | TGI (OVCAR-4 ovarian): 5.67 µM | TGI (MOLT-4 leukemia): 5.02 µM | TGI (HOP-62 NSCLC): 16.4 µM | TGI (A498 renal): 34.6 µM | TGI (ACHN renal): 5.29 µM | TGI (RXF 393 renal): 4.25 µM | TGI (SK-MEL-28 melanoma): 5.3 µM | TGI (SK-MEL-5 melanoma): 24.3 µM | TGI (UO-31 renal): 14.5 µM | TGI (PC-3 prostate): 29.1 µM | TGI (MALME-3M melanoma): 8.91 µM | TGI (NCI-H226 lung): 16.2 µM | TGI (SK-OV-3 ovarian): 38.2 µM | TGI (SF-295 CNS): 19.4 µM | TGI (DU-145 prostate): 15.1 µM | TGI (HOP-92 NSCLC): 59.5 µM | TGI (SW-620 colon): 12.2 µM | TGI (UACC-257 melanoma): 3.81 µM | TGI (COLO 205 colon): 13.2 µM | TGI (NCI-H460 lung): 32.5 µM | TGI (HS 578T breast): 56.2 µM | TGI (TK-10 renal): 18.4 µM | TGI (K-562 leukemia): 4.57 µM | TGI (MDA-MB-231 breast): 5.48 µM | TGI (SN12C renal): 3.09 µM | TGI (HL-60(TB) leukemia): 29.9 µM | TGI (BT-549 breast): 39.9 µM | TGI (M14 melanoma): 7.4 µM | TGI (SNB-75 CNS): 29.3 µM | TGI (NCI/ADR-RES ovarian): 43.9 µM | TGI (SF-268 CNS): 55.4 µM | TGI (SNB-19 CNS): 39.2 µM | TGI (OVCAR-3 ovarian): 4.33 µM | TGI (KM12 colon): 14.8 µM | TGI (NCI-H522 lung): 7.3 µM

COc1ccc2[nH]c(C(O)(Cc3cccnc3)Cc3cccnc3)cc2c1
TGI (HT29 colon): > 100 µM | TGI (MDA-MB-435): > 100 µM | TGI (SR leukemia): > 100 µM | TGI (HCT-116 colon): > 100 µM | TGI (A549 NSCLC): > 100 µM | TGI (CAKI-1 renal): > 100 µM | TGI (OVCAR-5 ovarian): > 100 µM | TGI (U251 CNS): > 100 µM | TGI (T-47D breast): > 100 µM | TGI (SK-MEL-2 melanoma): > 100 µM | TGI (NCI-H23 lung): > 100 µM | TGI (UACC-62 melanoma): > 100 µM | TGI (RPMI-8226 leukemia): > 100 µM | TGI (HCC-2998 colon): > 100 µM | TGI (MCF7 breast): > 100 µM | TGI (IGROV1 ovarian): > 100 µM | TGI (786-0 renal): > 100 µM | TGI (OVCAR-8 ovarian): > 100 µM | TGI (HCT-15 colon): > 100 µM | TGI (OVCAR-4 ovarian): > 100 µM | TGI (MOLT-4 leukemia): > 100 µM | TGI (CCRF-CEM leukemia): > 100 µM | TGI (HOP-62 NSCLC): > 100 µM | TGI (A498 renal): > 100 µM | TGI (ACHN renal): > 100 µM | TGI (RXF 393 renal): > 100 µM | TGI (SK-MEL-28 melanoma): > 100 µM | TGI (SK-MEL-5 melanoma): > 100 µM | TGI (UO-31 renal): > 100 µM | TGI (PC-3 prostate): > 100 µM | TGI (MALME-3M melanoma): > 100 µM | TGI (NCI-H226 lung): > 100 µM | TGI (EKVX NSCLC): > 100 µM | TGI (SK-OV-3 ovarian): > 100 µM | TGI (SF-295 CNS): > 100 µM | TGI (DU-145 prostate): > 100 µM | TGI (HOP-92 NSCLC): > 100 µM | TGI (SW-620 colon): > 100 µM | TGI (UACC-257 melanoma): > 100 µM | TGI (COLO 205 colon): > 100 µM | TGI (NCI-H460 lung): > 100 µM | TGI (HS 578T breast): > 100 µM | TGI (TK-10 renal): > 100 µM | TGI (K-562 leukemia): > 100 µM | TGI (MDA-MB-231 breast): > 100 µM | TGI (SN12C renal): > 100 µM | TGI (BT-549 breast): > 100 µM | TGI (M14 melanoma): > 100 µM | TGI (SNB-75 CNS): > 100 µM | TGI (NCI/ADR-RES ovarian): > 100 µM | TGI (SF-268 CNS): > 100 µM | TGI (SNB-19 CNS): > 100 µM | TGI (OVCAR-3 ovarian): > 100 µM | TGI (KM12 colon): > 100 µM
